Data: patent EP1507508B1, “COMPOSITION CONTAINING A PEPTIDE AND A PIGMENT AND THE USE THEREOF IN DARKENING THE SKIN” (JOHNSON & JOHNSON CONSUMER COMPANIES, INC., priority 2002, dated 2003)

System: Dark skinned Yucatan microswine
Experiment: Induced pigmentation in vivo, topical treatment, Fontana-Mason stained skin sections scored for pigment deposition
Settings: average of all sites of responsive swine; topical twice a day, five days/week, eight or nine weeks; positive controls 1% (W/V), pigments 1% or 5% (W/V), peptides 250 µM or 500µM, combinations with pigments at 1%(W/V)
Protocol: Compositions were tested for their ability to induce in vivo pigmentation in skin cells in the following experiment. Dark skinned Yucatan microswine (Charles River, Portland, ME) were housed in appropriately sized cages in an environmentally controlled room with a 12-hour light - 12-hour dark photoperiod and supplied with food and water ad libitum. Animal care was based on the "Guide for the Care and Use of Laboratory Animals", NIH Publication No. 85-23. Twenty µl of test peptides were applied topically, twice a day, five days/week, for eight or nine weeks, on the dorsum of the swine. Treatments of individual swine were always arranged in a head to tail order on one side, and in a tail to head order on the other side of the animal. Biopsies were taken using standard techniques.
F&M staining identifies silver nitrate reducing molecules. In skin, this non-specific stain identifies primarily melanin. At least three sections per biopsy were processed. Each experiment was repeated at least three times.
Swine were treated with either: the known skin darkening agent forskolin (Sigma) or with a Coleus forskoli extract (ATZ Naturals, Englewood Cliffs, NJ) which contains forskolin, as a positive control at 1% (W/V); pigments at 1% or 5% (W/V); peptides at 250 µM or 500µM; and combinations of such peptides at 250 µM or 500µM with pigments at 1%(W/V). […]

| Molecule | Score |
| --- | --- |
| C=C[C@@]1(C)CC(=O)[C@]2(O)[C@@]3(C)[C@@H](O)CCC(C)(C)[C@@H]3[C@H](O)[C@H](OC(C)=O)[C@@]2(C)O1 [Forskolin] | 1 |
| H2-Val-Gly-Val-Ala-Pro-Gly-NH2 (H-VGVAPG-NH2) [Peptide 1] | 1 |
